ChEMBL document CHEMBL3045878, “Effect of Insect Hormone Related Compounds on the Growth of Insect Cells” (1997)

Experiments:
Format in all cases: functional
[1] = Juvenile hormone mimic activity in Spodoptera frugiperda (fall armyworm) Sf21 cells assessed as cell number at 3.7 x 10 '-8 M after 5 days by trypan blue exclusion assay
[2] = Juvenile hormone mimic activity in Spodoptera frugiperda (fall armyworm) Sf21 cells assessed as cell number at 3.7 x 10 '-11 M after 5 days by trypan blue exclusion assay
[3] = Juvenile hormone mimic activity in Spodoptera frugiperda (fall armyworm) Sf21 cells assessed as cell number at 3.7 x 10 '-7 M after 5 days by trypan blue exclusion assay
[4] = Juvenile hormone mimic activity in Spodoptera frugiperda (fall armyworm) Sf21 cells assessed as cell number at 3.7 x 10 '-9 M after 5 days by trypan blue exclusion assay
[5] = Juvenile hormone mimic activity in Spodoptera frugiperda (fall armyworm) Sf21 cells assessed as cell number at 3.7 x 10 '-10 M after 5 days by trypan blue exclusion assay
[6] = Juvenile hormone mimic activity in Spodoptera frugiperda (fall armyworm) Sf21 cells assessed as cell number at 3.7 x 10 '-12 M after 5 days by trypan blue exclusion assay

Row | SMILES | Activity [1] | Activity [2] | Activity [3] | Activity [4] | Activity [5] | Activity [6]
1 | CC(C)=CCC/C(C)=C/c1cncn1Cc1ccccc1 | 4.2% | 5.5% | 3.3% | 4.9% | 5.5% | –
2 | CCc1ccc(C(=O)NN(C(=O)c2cc(C)cc(C)c2)C(C)(C)C)cc1 [TEBUFENOZIDE] | 5.1% | 5.4% | 4.3% | 5.7% | 5.6% | –
3 | COC(C)(C)CCC[C@H](C)C/C=C/C(C)=C/C(=O)OC(C)C [METHOPRENE] | 6% | 6.7% | 6% | 6.5% | 6.9% | 6.4%
